Data: article PMC7160233, “Peptides With Triplet-Tryptophan-Pivot Promoted Pathogenic Bacteria Membrane Defects” (Frontiers in Microbiology, 2020)

Columns and labels:
[1] = system: humans; settings: corresponding to the rat value, ref Richard et al., 2009, Fernstrom, 2012; cited from earlier work
Excerpt: (§1) Also, the indole ring of tryptophan prefers to interact with a […], and the indole NH being close to a lipid carbonyl ester leads W-containing peptides to be powerful and safe promising antibiotic candidates with different beneficial effects ([Dixon et al., 2003]; ...

[2] = system: rats; settings: ref Richard et al., 2009, Fernstrom, 2012; cited from earlier work
Excerpt: as §1

[3] = system: E. coli ATCC 25922; experiment: Mouse infection model, bacterial load; type: in vivo; settings: ICR mice, i.p. E. coli 1 × 10^8 CFU/ml, 5 mg/kg i.p. 1 h later, 6 h, P < 0.05
Protocol: Female Institute for Cancer Research (ICR) mice (SPF, 20–25 g) were purchased from WeiTonglihua, Co., Ltd. (Beijing, China). Mice were fed and acclimatized as described ([Chou et al., 2019]). E. coli ATCC 25922 was adopted as the pathogenic bacterium for the infection model in this study. In this mouse model, the antimicrobial activity of S7 was determined by colony counting of blood and various organs. Briefly, the mice were divided into four groups (six groups for anti-inflammatory assay) and received intraperitoneal injections of 100 μl E. coli (1 × 10^8 CFU/ml) cells in 0.9% NaCl or only 100 μl 0.9% NaCl as control. 1 h later, 100 μl S7 (5 mg/kg), 100 μl 0.9% NaCl, 100 μl gentamicin (5 mg/kg) or 100 μl 0.9% NaCl, was intraperitoneally injected to the treated or control groups, respectively. And the mice were sacrificed via excessive anesthesia after 6 h post-challenge. The anti-inflammatory effect of S7 was measured by testing the levels of TNF-α, IL-6, and IL-1β in serum using a TNF-α enzyme-linked immunosorbent assay (ELISA) kit, an IL-6 ELISA kit and an IL-1β ELISA kit according to the manufacturer’s instructions (Shanghai Jin Ma Laboratory Equipment, Co., Ltd.).

[4] = system: E. coli ATCC 25922; experiment: Drug resistance experiment (sequential passaging); type: cell-based, Escherichia coli; settings: E. coli 25922, passaged at sub-MIC for 30 days
Protocol: Resistance development of E. coli ATCC 25922 against antibiotics was investigated using a sequential passaging method. Briefly, in the first generation, the MIC value was determined as described previously. After a 24 h incubation, bacterial cells growing in a well with a half-MIC level were harvested and diluted to 0.05 at OD600, followed by a 1:10 dilution in fresh MHB. The inoculum was subjected to subsequent passage MIC testing, and the process was repeated for 30 days. The fold change in MIC was plotted against the number of passages.

| SMILES | median lethal dose (LD50), corresponding dose in humans [1] | median lethal dose (LD50) [2] | number of colonies in blood, kidney and liver versus E. coli group [3] | resistance development (change in MIC on serial passaging) [4] |
| --- | --- | --- | --- | --- |
| N[C@@H](Cc1c[nH]c2ccccc12)C(=O)O [Tryptophan (W), Tryptophan] | ~1400 mg/kg | 1600 mg/kg | – | – |
| CNC(C)C1CCC(N)C(OC2C(N)CC(N)C(OC3OCC(C)(O)C(NC)C3O)C2O)O1 (stereo not shown) [gentamicin] | – | – | significantly decreased | induced rapid resistance acquisition |
